Source: US20150353495A1 (PORTOLA PHARMACEUTICALS, INC., priority 2010, published 2015)
pIC50: −log10 of the molar value. Counter-ions that a name gives are not always drawn.

Columns and labels:
[1] = system: JAK1/3 signaling to STAT6 in Ramos B cells; assay: IL4 stimulation of JAK1/3 signaling to STAT6 in Ramos B cells (pSTAT6 Y641, FACS); type: cell-based; details: Homo sapiens; for inhibition at 0.2 µM: 0.2 uM compound, read-out: IL-4/STAT6 in Ramos Percent Inhibition at 0.2 uM; for inhibition at 1 µM: 1.0 uM compound, read-out: IL-4/STAT6 in Ramos Percent Inhibition at 1.0 uM
Outline: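 Phospho-STAT6 Y641 was measured by FACS using a PE-labelled antibody after fixation (2% paraformaldehyde) and methanol permeabilization. Before this, Ramos cells were exposed to compound for 1 h, then to 15 ng IL4 for 15 min.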

[2] = target: T1, JAK1 (Homo sapiens, UniProt P23458); assay: Z'-LYTE kinase assay JAK1; type: biochemical
T1 construct: 5 μl of catalytic domain recombinant Kinase enzyme+Tyr peptide substrate (Invitrogen, CA); purchased Invitrogen
Outline: (§1)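 Z′-LYTE FRET, Tyr6 peptide, recombinant catalytic domain + ATP, 1 h RT, 1% DMSO final, duplicates; protease development 1 h RT; fluorescence read.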

[3] = target: T2, JAK2 (Homo sapiens, UniProt O60674); assay: Z'-LYTE kinase assay JAK2; type: biochemical
T2 construct: 5 μl of catalytic domain recombinant Kinase enzyme+Tyr peptide substrate (Invitrogen, CA); purchased Invitrogen
Outline: as §1

[4] = target: T3, JAK3 (Homo sapiens, UniProt P52333); assay: Z'-LYTE kinase assay JAK3; type: biochemical
T3 construct: 5 μl of catalytic domain recombinant Kinase enzyme+Tyr peptide substrate (Invitrogen, CA); purchased Invitrogen
Outline: as §1

[5] = target: T4, TYK2 (Homo sapiens, UniProt P29597); assay: Z'-LYTE kinase assay TYK2; type: biochemical
T4 construct: 5 μl of catalytic domain recombinant Kinase enzyme+Tyr peptide substrate (Invitrogen, CA); purchased Invitrogen
T4 sequence (P29597 897-1176 limits assumed): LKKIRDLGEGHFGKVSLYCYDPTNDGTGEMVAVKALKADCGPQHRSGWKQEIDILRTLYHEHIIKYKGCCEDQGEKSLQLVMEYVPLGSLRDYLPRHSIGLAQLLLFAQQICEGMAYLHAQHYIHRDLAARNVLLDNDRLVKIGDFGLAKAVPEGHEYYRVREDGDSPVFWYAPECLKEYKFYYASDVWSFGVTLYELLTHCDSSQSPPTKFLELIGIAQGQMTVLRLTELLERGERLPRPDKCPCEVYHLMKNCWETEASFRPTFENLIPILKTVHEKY
Outline: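 IC50 derived by 4-parameter logistic fit of percent substrate phosphorylation relative to uninhibited wells. Tyr6 peptide phosphorylated by recombinant TYK2 catalytic domain for 1 h at room temperature (1% DMSO), cleaved by development protease 1 h, FRET emission ratio 445/520 nm.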

T3 sequence (P52333 822-1111 limits assumed): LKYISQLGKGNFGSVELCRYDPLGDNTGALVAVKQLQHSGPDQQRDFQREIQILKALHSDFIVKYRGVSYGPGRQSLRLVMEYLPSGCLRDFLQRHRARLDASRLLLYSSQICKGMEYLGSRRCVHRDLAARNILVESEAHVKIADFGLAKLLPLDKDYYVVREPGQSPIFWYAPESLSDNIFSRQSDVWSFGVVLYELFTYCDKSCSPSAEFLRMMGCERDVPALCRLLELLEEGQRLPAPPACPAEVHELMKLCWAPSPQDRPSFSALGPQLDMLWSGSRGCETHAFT
T1 sequence (P23458 875-1153 limits assumed): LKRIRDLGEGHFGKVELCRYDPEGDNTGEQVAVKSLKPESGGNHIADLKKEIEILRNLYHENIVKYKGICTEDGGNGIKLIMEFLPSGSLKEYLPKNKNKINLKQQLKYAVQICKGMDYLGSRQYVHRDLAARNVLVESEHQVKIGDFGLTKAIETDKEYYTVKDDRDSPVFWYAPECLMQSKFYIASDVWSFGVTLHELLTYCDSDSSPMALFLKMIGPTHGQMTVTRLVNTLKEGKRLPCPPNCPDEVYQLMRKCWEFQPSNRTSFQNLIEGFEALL
T2 sequence (O60674 849-1124 limits assumed): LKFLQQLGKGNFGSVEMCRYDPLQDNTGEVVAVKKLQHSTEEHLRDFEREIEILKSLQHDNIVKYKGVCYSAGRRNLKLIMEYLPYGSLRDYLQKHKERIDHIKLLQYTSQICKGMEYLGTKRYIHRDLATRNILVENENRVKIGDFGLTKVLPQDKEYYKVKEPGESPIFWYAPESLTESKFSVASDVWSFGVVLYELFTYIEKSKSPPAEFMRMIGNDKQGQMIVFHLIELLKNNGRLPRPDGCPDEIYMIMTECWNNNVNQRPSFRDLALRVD

| SMILES | pIC50 [2] | pIC50 [3] | pIC50 [4] | pIC50 [5] | inhibition at 0.2 µM [1] | inhibition at 1 µM [1] |
| --- | --- | --- | --- | --- | --- | --- |
| NC(=O)c1cnc(Nc2ccc(N3CCOCC3)cc2)cc1Nc1ccc(N2CCOCC2)cc1 [Example 16, 4,6-bis(4-morpholinophenylamino)nicotinamide] | < 6.00 | < 6.00 | 7.00 to 8.00 | < 6.00 | 17% | 46% |
| NC(=O)c1cnc(Nc2cccc(N3CCOCC3)c2)cc1NCc1ccccc1 [Example 31, 4-(benzylamino)-6-(3-morpholinophenylamino)nicotinamide] | 6.00 to 7.00 | 6.00 to 7.00 | 8.00 to 9.00 | 6.00 to 7.00 | 27% | 50% |
| NC(=O)c1cnc(Nc2cccc(OCCN3CCCC3)c2)cc1NCc1cccc(F)c1 [Example 58, 4-(3-fluorobenzylamino)-6-(3-(2-(pyrrolidin-1-yl)ethoxy)phenylamino)nicotinamide] | 6.00 to 7.00 | 7.00 to 8.00 | 8.00 to 9.00 | < 6.00 | 33% | 60% |
| NC(=O)c1cnc(Nc2cccc(OCCN3CCCC3)c2)cc1NCc1cccnc1 [Example 60, 4-(pyridin-3-ylmethylamino)-6-(3-(2-(pyrrolidin-1-yl)ethoxy)phenylamino)nicotinamide] | 6.00 to 7.00 | 6.00 to 7.00 | 8.00 to 9.00 | < 6.00 | 22% | 40% |
| NC(=O)c1cnc(Nc2ccc(N3CCCC3=O)c(Cl)c2)cc1NCc1cccc(F)c1 [Example 62, 6-(3-chloro-4-(2-oxopyrrolidin-1-yl)phenylamino)-4-(3-fluorobenzylamino)nicotinamide] | 6.00 to 7.00 | 6.00 to 7.00 | 7.00 to 8.00 | < 6.00 | 29% | 42% |
| COc1cc(Nc2cc(NCc3cccc(F)c3)c(C(N)=O)cn2)ccc1N1CCCC1=O [Example 63, 4-(3-fluorobenzylamino)-6-(3-methoxy-4-(2-oxopyrrolidin-1-yl)phenylamino)nicotinamide] | 6.00 to 7.00 | 6.00 to 7.00 | 8.00 to 9.00 | < 6.00 | 32% | 46% |
| NC(=O)c1cnc(Nc2ccc(N3CCCCC3=O)cc2)cc1NCc1cccc(F)c1 [Example 64, 4-(3-fluorobenzylamino)-6-(4-(2-oxopiperidin-1-yl)phenylamino)nicotinamide] | 6.00 to 7.00 | 7.00 to 8.00 | 8.00 to 9.00 | 6.00 to 7.00 | 32% | 50% |
| NC(=O)c1cnc(Nc2ccc(C3CCNCC3)cc2)cc1NCc1cccc(F)c1 [Example 70, 4-(3-fluorobenzylamino)-6-(4-(piperidin-4-yl)phenylamino)nicotinamide] | 6.00 to 7.00 | 7.00 to 8.00 | 8.00 to 9.00 | 6.00 to 7.00 | 23% | 45% |
| NC(=O)c1cnc(Nc2ccc(N3CCCCC3=O)cc2)cc1NCc1ccccc1F [Example 71, 4-(2-fluorobenzylamino)-6-(4-(2-oxopiperidin-1-yl)phenylamino)nicotinamide] | 6.00 to 7.00 | 6.00 to 7.00 | 8.00 to 9.00 | 6.00 to 7.00 | 22% | 37% |
| NC(=O)c1cnc(Nc2cccc(OCCN3CCCC3)c2)cc1NCc1ccccc1F [Example 72, 4-(2-fluorobenzylamino)-6-(3-(2-(pyrrolidin-1-yl)ethoxy)phenylamino)nicotinamide] | 6.00 to 7.00 | 6.00 to 7.00 | 8.00 to 9.00 | 6.00 to 7.00 | 27% | 54% |
| NC(=O)c1cnc(Nc2ccc(N3CCCCC3)cc2)cc1NCc1ccccc1F [Example 74, 4-(2-fluorobenzylamino)-6-(4-(piperidin-1-yl)phenylamino)nicotinamide] | < 6.00 | 6.00 to 7.00 | 7.00 to 8.00 | 6.00 to 7.00 | 21% | 43% |
| NC(=O)c1cnc(Nc2ccc(N3CCCCC3)cc2)cc1N[C@H](CO)c1ccccc1 [Example 75, (S)-4-(2-hydroxy-1-phenylethylamino)-6-(4-(piperidin-1-yl)phenylamino)nicotinamide] | < 6.00 | < 6.00 | 7.00 to 8.00 | < 6.00 | 11% | 26% |
| NC(=O)c1cnc(Nc2ccc(OCCN3CCCCC3)cc2)cc1NCc1ccccc1 [Example 81, 4-(benzylamino)-6-(4-(2-(piperidin-1-yl)ethoxy)phenylamino)nicotinamide] | < 6.00 | 6.00 to 7.00 | 7.00 to 8.00 | < 6.00 | 29% | 48% |

More lines, main results first:

| pIC50 [2] | pIC50 [3] | pIC50 [4] | pIC50 [5] | SMILES | inhibition at 0.2 µM [1] | inhibition at 1 µM [1] |
| --- | --- | --- | --- | --- | --- | --- |
| 6.00 to 7.00 | 6.00 to 7.00 | 8.00 to 9.00 | 6.00 to 7.00 | NC(=O)c1cnc(Nc2ccc(C(=O)N3CCOCC3)cc2)cc1NCc1ccccc1 [Example 40, 4-(benzylamino)-6-(4-(morpholine-4-carbonyl)phenylamino)nicotinamide] | 46% | 69% |
| 6.00 to 7.00 | 6.00 to 7.00 | 7.00 to 8.00 | 7.00 to 8.00 | NC(=O)c1cnc(Nc2ccc(C(=O)N3CCCC3)cc2)cc1NCC1CCCC1 [Example 41, 4-(cyclopentylmethylamino)-6-(4-(pyrrolidine-1-carbonyl)phenylamino)nicotinamide] | 31% | 59% |
| 6.00 to 7.00 | 6.00 to 7.00 | 8.00 to 9.00 | 6.00 to 7.00 | NC(=O)c1cnc(Nc2ccc(C(=O)N3CCC3)cc2)cc1NCc1ccccc1 [Example 46, 6-(4-(azetidine-1-carbonyl)phenylamino)-4-(benzylamino)nicotinamide] | 54% | 80% |
| 6.00 to 7.00 | 7.00 to 8.00 | 8.00 to 9.00 | < 6.00 | NC(=O)c1cnc(Nc2cccc(N3CCOCC3)c2)cc1NCc1cccc(F)c1 [Example 65, 4-(3-fluorobenzylamino)-6-(3-morpholinophenylamino)nicotinamide] | 28% | 49% |
| 6.00 to 7.00 | 7.00 to 8.00 | 8.00 to 9.00 | 6.00 to 7.00 | NC(=O)c1cnc(Nc2ccc(N3CCOCC3)cc2)cc1NCc1ccccc1F [Example 73, 4-(2-fluorobenzylamino)-6-(4-morpholinophenylamino)nicotinamide] | 23% | 53% |
| 6.00 to 7.00 | 7.00 to 8.00 | 8.00 to 9.00 | 6.00 to 7.00 | C[N+]1(C)CCC(c2ccc(Nc3cc(NCc4cccc(F)c4)c(C(N)=O)cn3)cc2)CC1 [Example 78, 4-(4-(5-carbamoyl-4-(3-fluorobenzylamino)pyridin-2-ylamino)phenyl)-1,1-dimethylpiperidinium formate] |  | 14% |
| < 6.00 | 6.00 to 7.00 | 7.00 to 8.00 | < 6.00 | NC(=O)c1cnc(Nc2ccc(OCC(=O)N3CCOCC3)cc2)cc1NCc1ccccc1 [Example 80, 4-(benzylamino)-6-(4-(2-morpholino-2-oxoethoxy)phenylamino)nicotinamide] | 23% | 43% |
